# US20250064762A1, “A SUBSTITUTED AROMATIC DICARBONIC ACID AMIDE AS AN INHIBITOR OF THE FERROPTOSIS SUPPRESSOR PROTEIN-1 (FSP1)” (JULIUS-MAXIMILIANS-UNIVERSITÄT WÜRZBURG, priority 2021, published 2025)
# System: HT1080 cells
# Experiment: Mass spectrometry lipidomics of CPBA-treated cells
# Assay type: cell-based, human
# Settings: 200 μM CPBA, 16 h
# Experimental: Mass spectrometry-based lipid analysis was performed by Lipotype GmbH (Dresden, Germany) as described (Sampaio et al. 2011). Lipids were extracted using a two-step chloroform/methanol procedure (Ejsing et al. 2009). […]
# Samples were analyzed by direct infusion on a QExactive mass spectrometer (Thermo Fisher Scientific) equipped with a TriVersa NanoMate ion source (Advion Biosciences). Samples were analyzed in both positive and negative ion modes with a resolution of Rm/z=200=280000 for MS and Rm/z=200=17500 for MSMS experiments, in a single acquisition. […]
# Data were analyzed with in-house developed lipid identification software based on LipidXplorer (Herzog et al. 2011; Herzog et al. 2012). […]
# Next, we analyzed the lipidomic signature of HT1080 cells treated with CPBA (200 μM, 16 h) using the lipidomics methods described above. […]
structure (smiles),measurement,value
"O=C(Nc1ccccc1C(=O)O)c1ccc(Oc2ccc(C(=O)Nc3ccccc3C(=O)O)cc2)cc1 [CPBA, 2-[[4-[4-[(2-carboxyphenyl)carbamoyl]phenoxy]benzoyl]amino]-benzoic acid]","PUFA ether lipids (PE-O, PC-O)",downregulate polyunsaturated fatty acid (PUFA) ether lipids
same,PUFA-triacylglycerides,upregulate PUFA-triacylglycerides (PUFA-TAGS)
